Molecules are shown by their SMILES. The source made the active and inactive calls. A value given as a limit tells only on which side of the number the result lay.

The target in assay [1] is T1, Serine/threonine-protein kinase A-Raf (Homo sapiens, UniProt P10398).
T1 sequence (P10398 whole entry): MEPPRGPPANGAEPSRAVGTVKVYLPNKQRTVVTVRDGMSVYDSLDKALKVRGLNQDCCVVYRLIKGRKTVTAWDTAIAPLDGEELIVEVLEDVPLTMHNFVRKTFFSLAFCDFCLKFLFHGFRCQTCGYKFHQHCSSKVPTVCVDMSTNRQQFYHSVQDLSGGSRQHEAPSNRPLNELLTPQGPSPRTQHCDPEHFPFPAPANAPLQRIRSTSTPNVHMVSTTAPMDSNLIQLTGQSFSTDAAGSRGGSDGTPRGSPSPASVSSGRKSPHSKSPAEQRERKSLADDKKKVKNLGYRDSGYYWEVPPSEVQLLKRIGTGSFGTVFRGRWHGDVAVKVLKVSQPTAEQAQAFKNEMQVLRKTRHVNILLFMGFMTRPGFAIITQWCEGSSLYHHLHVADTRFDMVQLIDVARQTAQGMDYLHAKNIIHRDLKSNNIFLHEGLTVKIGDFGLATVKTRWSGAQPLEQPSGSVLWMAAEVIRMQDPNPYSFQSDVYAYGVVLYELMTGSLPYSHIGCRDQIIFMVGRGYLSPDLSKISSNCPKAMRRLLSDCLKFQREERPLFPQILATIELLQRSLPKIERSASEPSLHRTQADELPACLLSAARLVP

Assay [2] addresses T2, Glycogen phosphorylase, brain form (Homo sapiens, UniProt P11216).
T2 sequence (P11216 whole entry): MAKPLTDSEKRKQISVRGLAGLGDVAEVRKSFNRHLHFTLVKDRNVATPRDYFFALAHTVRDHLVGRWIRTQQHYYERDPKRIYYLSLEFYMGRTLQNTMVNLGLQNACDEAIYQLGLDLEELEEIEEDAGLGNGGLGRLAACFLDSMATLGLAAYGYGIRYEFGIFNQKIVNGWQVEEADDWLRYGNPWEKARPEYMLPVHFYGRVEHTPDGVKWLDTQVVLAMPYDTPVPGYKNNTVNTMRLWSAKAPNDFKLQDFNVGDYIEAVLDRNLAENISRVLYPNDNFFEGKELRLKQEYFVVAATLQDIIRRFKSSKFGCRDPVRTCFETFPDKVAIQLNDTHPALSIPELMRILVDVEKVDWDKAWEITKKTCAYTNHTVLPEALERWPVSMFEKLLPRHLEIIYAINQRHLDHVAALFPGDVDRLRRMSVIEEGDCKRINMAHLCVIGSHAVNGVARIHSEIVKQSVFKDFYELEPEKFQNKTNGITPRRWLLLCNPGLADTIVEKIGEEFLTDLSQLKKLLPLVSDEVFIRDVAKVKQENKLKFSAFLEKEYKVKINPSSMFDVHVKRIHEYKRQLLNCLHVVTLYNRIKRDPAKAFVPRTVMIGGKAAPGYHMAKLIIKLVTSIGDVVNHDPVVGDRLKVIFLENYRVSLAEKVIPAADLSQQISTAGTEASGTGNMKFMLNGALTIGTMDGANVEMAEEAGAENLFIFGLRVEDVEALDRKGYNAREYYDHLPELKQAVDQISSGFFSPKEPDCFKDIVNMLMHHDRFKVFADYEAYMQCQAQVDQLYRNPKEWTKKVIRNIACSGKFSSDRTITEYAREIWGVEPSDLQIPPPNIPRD

Assay [3] deals with TRAF2 and NCK-interacting protein kinase (Homo sapiens, UniProt Q9UKE5).
Assay [4] deals with Protein kinase C delta type (Homo sapiens, UniProt Q05655).
The next assay deals with T3, Septin-9 (Homo sapiens, UniProt Q9UHD8).
T3 sequence (Q9UHD8 whole entry): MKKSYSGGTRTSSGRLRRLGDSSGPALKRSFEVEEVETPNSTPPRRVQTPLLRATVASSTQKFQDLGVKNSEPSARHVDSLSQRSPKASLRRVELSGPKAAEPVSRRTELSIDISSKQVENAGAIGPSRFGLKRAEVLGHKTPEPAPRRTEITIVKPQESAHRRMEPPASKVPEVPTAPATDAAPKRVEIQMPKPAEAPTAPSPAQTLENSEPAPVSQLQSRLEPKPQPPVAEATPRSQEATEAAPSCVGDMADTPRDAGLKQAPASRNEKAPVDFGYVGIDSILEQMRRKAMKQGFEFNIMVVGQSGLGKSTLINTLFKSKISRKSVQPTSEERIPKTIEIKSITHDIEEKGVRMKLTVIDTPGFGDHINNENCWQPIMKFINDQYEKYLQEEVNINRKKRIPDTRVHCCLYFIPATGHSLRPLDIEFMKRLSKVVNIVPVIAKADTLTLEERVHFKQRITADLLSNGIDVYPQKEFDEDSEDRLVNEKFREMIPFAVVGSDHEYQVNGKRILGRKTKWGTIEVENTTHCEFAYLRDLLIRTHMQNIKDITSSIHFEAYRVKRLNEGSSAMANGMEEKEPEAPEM

The target in assay [5] is Eukaryotic translation initiation factor 2-alpha kinase 1 (Homo sapiens, UniProt Q9BQI3).
Assay [6] concerns the target Phosphatidylethanolamine-binding protein 1 (Homo sapiens, UniProt P30086).
Note: in the data inactive means no Kd found up to 30 µM.

Sequence of TRAF2 and NCK-interacting protein kinase (Q9UKE5 whole entry): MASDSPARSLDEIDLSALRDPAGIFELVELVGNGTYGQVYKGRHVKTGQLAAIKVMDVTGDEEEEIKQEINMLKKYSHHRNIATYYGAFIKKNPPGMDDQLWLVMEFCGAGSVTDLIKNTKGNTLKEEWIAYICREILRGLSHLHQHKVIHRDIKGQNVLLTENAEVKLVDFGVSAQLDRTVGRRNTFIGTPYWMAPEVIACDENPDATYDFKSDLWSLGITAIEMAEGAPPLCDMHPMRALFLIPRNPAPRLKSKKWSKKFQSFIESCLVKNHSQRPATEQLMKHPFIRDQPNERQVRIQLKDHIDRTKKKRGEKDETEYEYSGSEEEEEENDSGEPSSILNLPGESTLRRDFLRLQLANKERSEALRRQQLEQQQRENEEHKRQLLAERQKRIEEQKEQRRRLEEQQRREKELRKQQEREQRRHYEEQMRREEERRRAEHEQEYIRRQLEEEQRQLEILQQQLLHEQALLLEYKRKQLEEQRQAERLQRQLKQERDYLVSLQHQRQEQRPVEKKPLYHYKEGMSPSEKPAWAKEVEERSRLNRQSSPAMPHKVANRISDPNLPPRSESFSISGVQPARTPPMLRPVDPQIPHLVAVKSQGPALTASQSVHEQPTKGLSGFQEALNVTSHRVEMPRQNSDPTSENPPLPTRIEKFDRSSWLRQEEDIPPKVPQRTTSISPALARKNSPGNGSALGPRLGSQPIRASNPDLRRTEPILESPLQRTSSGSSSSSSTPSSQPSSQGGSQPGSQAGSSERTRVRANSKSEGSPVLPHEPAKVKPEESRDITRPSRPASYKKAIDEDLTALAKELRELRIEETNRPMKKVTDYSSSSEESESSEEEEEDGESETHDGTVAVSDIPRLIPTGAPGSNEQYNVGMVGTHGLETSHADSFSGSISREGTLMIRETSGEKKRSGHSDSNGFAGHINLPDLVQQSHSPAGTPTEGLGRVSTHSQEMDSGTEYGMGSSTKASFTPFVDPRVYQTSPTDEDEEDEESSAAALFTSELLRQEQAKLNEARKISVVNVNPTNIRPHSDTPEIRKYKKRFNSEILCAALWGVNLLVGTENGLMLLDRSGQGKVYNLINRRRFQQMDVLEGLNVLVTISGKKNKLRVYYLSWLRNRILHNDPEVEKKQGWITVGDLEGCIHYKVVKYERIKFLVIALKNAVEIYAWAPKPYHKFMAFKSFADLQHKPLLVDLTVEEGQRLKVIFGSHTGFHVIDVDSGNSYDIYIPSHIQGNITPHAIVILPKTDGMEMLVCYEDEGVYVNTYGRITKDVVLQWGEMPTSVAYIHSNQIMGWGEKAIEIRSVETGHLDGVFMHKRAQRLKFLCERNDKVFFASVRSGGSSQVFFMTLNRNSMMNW
Sequence of Phosphatidylethanolamine-binding protein 1 (P30086 whole entry): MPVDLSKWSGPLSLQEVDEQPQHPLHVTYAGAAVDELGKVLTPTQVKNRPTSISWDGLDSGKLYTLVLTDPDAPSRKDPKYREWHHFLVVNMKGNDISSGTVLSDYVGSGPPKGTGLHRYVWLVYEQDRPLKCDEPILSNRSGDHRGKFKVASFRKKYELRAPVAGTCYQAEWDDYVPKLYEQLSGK
Sequence of Eukaryotic translation initiation factor 2-alpha kinase 1 (Q9BQI3 whole entry): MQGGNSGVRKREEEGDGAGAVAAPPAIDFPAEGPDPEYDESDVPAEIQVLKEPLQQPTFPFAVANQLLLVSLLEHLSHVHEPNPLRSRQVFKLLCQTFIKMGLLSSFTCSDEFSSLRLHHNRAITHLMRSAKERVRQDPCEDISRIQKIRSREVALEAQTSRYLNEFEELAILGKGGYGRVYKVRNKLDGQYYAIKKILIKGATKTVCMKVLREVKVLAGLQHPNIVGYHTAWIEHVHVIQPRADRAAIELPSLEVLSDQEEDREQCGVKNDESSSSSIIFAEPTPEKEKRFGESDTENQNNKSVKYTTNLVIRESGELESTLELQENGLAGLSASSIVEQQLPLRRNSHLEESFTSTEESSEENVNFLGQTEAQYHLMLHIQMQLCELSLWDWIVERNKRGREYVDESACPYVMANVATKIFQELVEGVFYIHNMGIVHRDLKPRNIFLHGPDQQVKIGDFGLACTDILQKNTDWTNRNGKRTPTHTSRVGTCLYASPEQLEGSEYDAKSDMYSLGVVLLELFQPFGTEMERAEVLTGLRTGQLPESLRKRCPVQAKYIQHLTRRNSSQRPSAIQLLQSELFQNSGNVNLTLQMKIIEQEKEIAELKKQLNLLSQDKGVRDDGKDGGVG
Sequence of Protein kinase C delta type (Q05655 whole entry): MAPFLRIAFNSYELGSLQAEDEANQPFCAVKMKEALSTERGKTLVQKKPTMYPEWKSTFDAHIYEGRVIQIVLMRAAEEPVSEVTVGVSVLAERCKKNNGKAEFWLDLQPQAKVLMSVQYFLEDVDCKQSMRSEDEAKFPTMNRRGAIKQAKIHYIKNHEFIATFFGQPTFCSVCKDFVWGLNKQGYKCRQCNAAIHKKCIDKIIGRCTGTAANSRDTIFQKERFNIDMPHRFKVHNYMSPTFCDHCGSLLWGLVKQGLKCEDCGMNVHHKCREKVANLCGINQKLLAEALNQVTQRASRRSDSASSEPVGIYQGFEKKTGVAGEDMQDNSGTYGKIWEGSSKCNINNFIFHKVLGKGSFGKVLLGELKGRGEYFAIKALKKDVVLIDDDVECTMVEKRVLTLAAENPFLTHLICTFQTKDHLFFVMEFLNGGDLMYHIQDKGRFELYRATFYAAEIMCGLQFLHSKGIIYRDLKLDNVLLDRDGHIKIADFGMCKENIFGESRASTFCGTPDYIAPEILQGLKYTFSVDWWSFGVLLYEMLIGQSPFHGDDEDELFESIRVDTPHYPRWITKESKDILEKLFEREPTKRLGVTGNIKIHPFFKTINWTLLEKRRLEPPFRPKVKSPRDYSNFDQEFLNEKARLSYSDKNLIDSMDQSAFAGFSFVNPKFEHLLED

Regarding `CCn1c(C(=O)N(C2CC2)C2CC2)cc2c3c(ncn3C)c(Nc3cc(C)n(C)n3)nc21` [BMS-911543], the Kd (in assay [1]; in assay [2]; in assay [3]; in assay [4]; on Septin-9; in assay [5]) was > 30 µM (inactive) in each case. Also, the Kd in assay [6] was > 30 µM (inactive).

In the case of `COc1cc2ncnc(Oc3cccc(NC(=O)Nc4cc(C(C)(C)C(F)(F)F)on4)c3)c2cc1OC` [CEP-32496], the Kd (in assay [1]; in assay [2]; in assay [3]; in assay [4]; at Septin-9; in assay [5]) was > 30 µM (inactive) each time. The Kd in assay [6] was > 30 µM (inactive).

`Cc1cc(Nc2ncc(Cl)c(Nc3ccccc3S(=O)(=O)C(C)C)n2)c(OC(C)C)cc1C1CCNCC1` [CERITINIB]: the Kd (in assay [1]; in assay [2]; in assay [3]; in assay [4]; at Septin-9; in assay [5]) was > 30 µM (inactive) throughout. Besides, the Kd in assay [6] is > 30 µM (inactive).

Take `COc1c(OCCCN2CCOCC2)ccc2c1N=C(NC(=O)c1cnc(N)nc1)N1CCN=C21` [COPANLISIB]: the Kd (in assay [1]; in assay [2]; in assay [3]; in assay [4]; on Septin-9; in assay [5]) was > 30 µM (inactive) in each case. Besides, the Kd in assay [6] was > 30 µM (inactive).

In the case of `COCC(=O)NC/C=C/c1ccc2ncnc(Nc3ccc(Oc4ccc(C)nc4)c(C)c3)c2c1` [CP-724714], the Kd (in assay [1]; in assay [2]; in assay [3]; in assay [4]; at Septin-9; in assay [5]) was > 30 µM (inactive) in each case. Further, the Kd in assay [6] is > 30 µM (inactive).

As for `C#Cc1cccc(Nc2ncnc3cc(OC)c(OCCCCCCC(=O)NO)cc23)c1` [CUDC-101], the Kd (in assay [1]; in assay [2]; in assay [3]; in assay [4]; at Septin-9; in assay [5]) was > 30 µM (inactive) throughout. The Kd in assay [6] is > 30 µM (inactive).

Regarding `O=C(Nc1nc2cccc(-c3ccc(CN4CCS(=O)(=O)CC4)cc3)n2n1)C1CC1` [FILGOTINIB], the Kd (in assay [1]; in assay [2]; in assay [3]; in assay [4]; at Septin-9; in assay [5]) was > 30 µM (inactive) in each case. Also, the Kd in assay [6] is > 30 µM (inactive).

With `Cc1cccc(-c2nn3c(c2-c2ccnc4ccc(C(N)=O)cc24)CCC3)n1` [GALUNISERTIB], the Kd in assay [1] is > 30 µM (inactive); in assay [2], > 30 µM (inactive); in assay [3], 1.21 µM; in assay [4] it was > 30 µM (inactive); on Septin-9 it was > 30 µM (inactive); in assay [5], > 30 µM (inactive). The Kd in assay [6] was > 30 µM (inactive).

In the case of `CNC(=O)c1cccc2cc(Oc3ccnc4cc(OCC5(N)CC5)c(OC)cc34)ccc12` [LUCITANIB], the Kd (in assay [1]; in assay [2]; in assay [3]; in assay [4]; at Septin-9; in assay [5]) was > 30 µM (inactive) in each case. Further, the Kd in assay [6] was > 30 µM (inactive).

`NC1(c2ccc(-c3nc4ccn5c(=O)[nH]nc5c4cc3-c3ccccc3)cc2)CCC1` [MK-2206]: the Kd (in assay [1]; in assay [2]; in assay [3]; in assay [4]; on Septin-9; in assay [5]) was > 30 µM (inactive) throughout. In assay [6], the Kd is > 30 µM (inactive).

Regarding `CN(C[C@@H]1COCCO1)S(=O)(=O)Nc1ccc2ccc3ncc(-c4cnn(C)c4)cc3c(=O)c2c1` [MK-2461], the Kd (in assay [1]; in assay [2]; in assay [3]; in assay [4]; at Septin-9; in assay [5]) was > 30 µM (inactive) in each case. The Kd in assay [6] is > 30 µM (inactive).

`Cn1cc(-c2cnc3ccc4ccc(CS(=O)(=O)NCc5ccccn5)cc4c(=O)c3c2)cn1` [MK-8033]: the Kd (in assay [1]; in assay [2]; in assay [3]; in assay [4]; on Septin-9; in assay [5]) was > 30 µM (inactive) in each case. In addition, the Kd in assay [6] was > 30 µM (inactive).

With `FC(F)(F)c1ccc(/C=C/c2nc(COc3ccc(CCCCn4ccnn4)cc3)co2)cc1` [MUBRITINIB], the Kd (in assay [1]; in assay [2]; in assay [3]; in assay [4]; on Septin-9; in assay [5]) was > 30 µM (inactive) each time. Moreover, the Kd in assay [6] was > 30 µM (inactive).

With `COc1ncc(-c2ccc3nccc(-c4ccnnc4)c3c2)cc1NS(=O)(=O)c1ccc(F)cc1F` [OMIPALISIB], the Kd (in assay [1]; in assay [2]; in assay [3]; in assay [4]; on Septin-9; in assay [5]) was > 30 µM (inactive) throughout. In assay [6], the Kd was > 30 µM (inactive).

For `CCCCCCCCCCCCCCCCCCOP(=O)([O-])OC1CC[N+](C)(C)CC1` [PERIFOSINE], the Kd (in assay [1]; in assay [2]; in assay [3]; in assay [4]; on Septin-9; in assay [5]) was > 30 µM (inactive) each time. Further, in assay [6], the Kd is > 30 µM (inactive).

As for `Cc1nc(Nc2n[nH]c3c2CN(C(=O)N[C@H](CN(C)C)c2ccccc2)C3(C)C)c2sccc2n1` [PF-03758309], the Kd was > 30 µM (inactive) in assay [1]; > 30 µM (inactive) in assay [2]; > 30 µM (inactive) in assay [3]; 0.974 µM (active) in assay [4]; > 30 µM (inactive) on Septin-9; > 30 µM (inactive) in assay [5]. The Kd in assay [6] was > 30 µM (inactive).

What is called Kd is the equilibrium constant for the complex coming apart.

The record behind these values is ChEMBL document CHEMBL3991601, “The target landscape of clinical kinase drugs” (Science, 2017).
